According to US11135178B2, “Thymol and carvacol for use in medicine” (UNIVERSITY OF IOWA RESEARCH FOUNDATION, priority 2014, dated 2021):

How the values were obtained:
C2C12 myotubes [1] = test: Fura-2 Ca2+ ratios in C2C12 myotubes, functional screen with TRPV agonists; format: cell-based; conditions: for intracellular (cytosolic) Ca2+ rise: Fura-2 Ca2+ ratios
Protocol: FIG. 2. Fura-2 Ca^2+ Ratios in C2C12 myotubes in response to known activators of TRPV1 (Capsaicin), TRPV3 (Thymol, Carvacrol, 2-APB), and TRPV4 (GSK 101). ** p<0.01 compared to vehicle Ca^2+ response.
To determine the physiological significance of these TRPV ion channels in skeletal muscle Ca^2+ homeostasis, a functional screen for the magnitude of intracellular Ca^2+ rise was performed using known agonists for TRPV1 (Capsaicin), TRPV3 (Carvacrol/Thymol/2-APB) and TRPV4 (GSK101) in C2C12 myotubes (FIG. 2). C2C12 myoblasts were grown to confluency and then differentiated into myotubes by culturing in Dulbecco's Modified Eagles Medium (DMEM) with 2% horse serum for 5 days. Measurement of Fura-2 Ca2+ ratios in C2C12 myotubes was performed as described previously in cultured adipocytes (Ye L., et al., TRPV4 is a regulator of adipose oxidative metabolism, inflammation, and energy homeostasis. Cell. 2012; 151:96-110).

PGC1α = test: qRT-PCR transcriptional screen in C2C12 myotubes: PGC1α; format: cell-based; conditions: 48 hrs
Protocol: (§1) FIG. 5. […] A. fold change after 48 hrs carvacrol (0, 5, and 100 μM, from left to right for each grouping); and B. thymol (0, 5, and 50 μM, from left to right for each grouping).
(§2) A qRT-PCR based transcriptional screen was then performed to assess for induction of the classical genes associated with exercise-induced changes in skeletal muscle, including growth, and enhanced endurance (FIG. 5). Transcriptional analysis of candidate genes was performed as described previously (Sah R., et al., The Timing of Myocardial Trpm7 Deletion during Cardiogenesis Variably Disrupts Adult Ventricular Function, Conduction and Repolarization. Circulation. 2013; Sah R., et al., Ion channel-kinase TRPM7 is required for maintaining cardiac automaticity. Proc Natl Acad Sci USA. 2013; 110:E3037-46) using the following primers: […]

IGF-1 = test: qRT-PCR transcriptional screen in C2C12 myotubes: IGF-1; format: cell-based; conditions: 48 hrs
Protocol: as §1, §2

C57/B6 mice [2] = test: Exercise tolerance by treadmill testing of sedentary mice; format: in vivo, mouse; conditions: 20 mg/kg/day oral gavage, 5 weeks
Protocol: FIG. 6. Exercise tolerance measured by treadmill testing of C57/B6 mice before and after 5 weeks of either vehicle or thymol (20 mg/kg/day). A. Exercise protocol and tolerance after vehicle or thymol. B. Mean exercise tolerance pre and post treatment.
(§3) Based on these strong in vitro data, in vivo studies were then performed to determine both safety and efficacy of using thymol and/or carvacrol to mimic the effects of exercise on skeletal muscle function. […] Accordingly, the pilot studies were limited to thymol alone and treated sedentary C57/B6 mice with either vehicle (Sunflower oil) or Thymol (20 mg/kg/day) by oral gavage for 5 weeks and then assessed exercise capacity by treadmill testing, core body temperature by infra-red thermal imaging, and skeletal muscle hypertrophy by muscle weight. […] J Gen Physiol. 2014; 143:119-34)) after mild exercise (FIG. 7) and an increase in gastrocnemius muscle weight (weight bearing muscles—FIG. 8).

TRPV3 knock-out mice = test: In vivo experiments repeated in TRPV3 knock-out mice; design: species or system mouse; conditions: TRPV3 KO mice, 20 mg/kg/day, 5 weeks
Protocol: FIG. 9: Exercise tolerance measured by treadmill testing of TRPV3 KO mice before and after 5 weeks of either vehicle or thymol (20 mg/kg/day). A. Exercise protocol and tolerance after vehicle or thymol. B. Mean exercise tolerance pre and post treatment.
as §3

C57/B6 mice [3] = test: Core body temperature by infra-red thermal imaging after mild exercise; format: in vivo, mouse; conditions: sedentary C57/B6 mice, 20 mg/kg/day oral gavage, 5 weeks
Protocol: FIG. 7. Top: Representative thermal images of vehicle (left) and thymol (right) treated mice. Bottom: Mean data of temperature of upper and lower body in vehicle-treated vs thymol treated mice.
as §3

[4] = tested on: flexor digitorum brevis (FDB) muscle fibers; test: Confocal calcium imaging (Fluo-4AM) of freshly isolated FDB muscle fibers; format: cell-based, mouse; conditions: for effects on Ca2+ cycling: freshly isolated muscle fibers, carvacrol 100, 200, 500 μM, thymol 50, 100, 200 μM
Protocol: FIG. 3. Confocal calcium imaging (Fluo-4AM) of freshly isolated mouse flexor digitorum brevis (FDB) muscle fibers in response to sequential applications of carvacrol (A: 100, 200 and 500 μM) and thymol (B: 50, 100 and 200 μM).
These findings were further validated in freshly isolated mouse flexor digitorum brevis (FDB) muscle fibers (FIG. 3) to confirm the result in primary muscle cells. Primary skeletal muscle fibers were isolated from flexor digitorum brevis (FDB) muscle. In brief, FDB muscles were dissected and mechanically cleaned of connective tissue in a standard Ringer's solution containing (in mM): 146 NaCl, 5 KCl, 2 CaCl2, 1 MgCl2, and 10 HEPES, pH 7.4 with NaOH. Muscles were then shaken for 40 min at 37° C. in 1 mg/ml of collagenase A (Roche) dissolved in Ringer's solution. After collagenase treatment, individual FDB fibers were dissociated by gentle trituration using Pasteur pipettes of decreasing bore size. […] All experiments were conducted at room temperature on fibers obtained within 8 h of isolation. Confocal calcium imaging of FDB fibers were performed as described previously in cardiac myocytes but at room temperature (23° C.) (Sah R., et al., Ion channel-kinase TRPM7 is required for maintaining cardiac automaticity. Proc Natl Acad Sci USA. 2013; 110:E3037-46).

C57/B6 mice [5] = test: Skeletal muscle hypertrophy by muscle weight; format: in vivo, mouse; conditions: sedentary C57/B6 mice, 20 mg/kg/day oral gavage, 5 weeks
Protocol: FIG. 8: Skeletal muscle weight in sedentary C57/B6 mice after 5 weeks of treatment with either vehicle or thymol (for each group, the left bar represents vehicle and the right bar represents thymol).
as §3

C2C12 myotubes [6] = test: Myotube hypertrophy by immunostaining and confocal imaging (myotube diameter); format: cell-based; conditions: 50 μM for 48 hours
Protocol: FIG. 4. A. Confocal images immunostained C2C12 myotubes (staining skeletal actin and Topro-3 nuclear stain) incubated for 48 hrs in vehicle (left) or carvacrol 50 μM (right). B. quantification of myotube width. NT—not treated, Vehicle—DMSO.
It was next examined whether the increase in cytosolic Ca^2+ induced by this class of compounds could induce cellular hypertrophy in vitro in C2C12 myotubes as would occur with augmented Ca^2+ release during exercise. Immunostaining and confocal imaging of C2C12 myotubes were performed as described previously in cardiac myocytes (Sah R., et al., The Timing of Myocardial Trpm7 Deletion during Cardiogenesis Variably Disrupts Adult Ventricular Function, Conduction and Repolarization. Circulation. 2013).

## CC(C)C[C@H](NC(=O)c1cc2ccccc2s1)C(=O)N1CCN(C(=O)[C@H](CO)NS(=O)(=O)c2ccc(Cl)cc2Cl)CC1 [GSK101, reference compound]
C2C12 myotubes [1]
  intracellular (cytosolic) Ca2+ rise: essentially no effect

## COc1cc(CNC(=O)CCCC/C=C/C(C)C)ccc1O [Capsaicin, reference compound]
C2C12 myotubes [1]
  intracellular (cytosolic) Ca2+ rise: essentially no effect

## NCCOB(c1ccccc1)c1ccccc1 [2-APB, reference compound]
C2C12 myotubes [1]
  intracellular (cytosolic) Ca2+ rise: reproducible and reversible increases

## Cc1ccc(C(C)C)c(O)c1 [thymol, 2-isopropyl-5-methylphenol]
PGC1α
  induction of PGC1α: 3 fold
IGF-1
  induction of IGF-1: ~4 fold
C57/B6 mice [2]
  augmented exercise capacity over vehicle treated mice: 37%
TRPV3 knock-out mice
  augmented thermogenesis in TRPV3 knock-out mice: abolished
  enhanced exercise capacity in TRPV3 knock-out mice: abolished
  gastrocnemius hypertrophy in TRPV3 knock-out mice: abolished
C57/B6 mice [3]
  core body temperature after mild exercise: significant increase
[4]; freshly isolated mouse FDB fibers
  potency at augmenting cytosolic Ca2+ relative to carvacrol: approximately twice as potent as carvacrol
[4]
  effects on Ca2+ cycling: clear effects
C57/B6 mice [5]
  gastrocnemius muscle weight: increase
C2C12 myotubes [1]
  potency at augmenting cytosolic Ca2+ relative to carvacrol: approximately twice as potent as carvacrol
  intracellular (cytosolic) Ca2+ rise: reproducible and reversible increases

## Cc1ccc(C(C)C)cc1O [carvacrol, 2-methyl-5-isopropylphenol]
PGC1α
  induction of PGC1α: 13.8 fold
IGF-1
  induction of IGF-1: ~8 fold
C2C12 myotubes [6]
  myotube hypertrophy (increase in myotube diameter): significant myotube hypertrophy
[4]
  effects on Ca2+ cycling: clear effects
C2C12 myotubes [1]
  intracellular (cytosolic) Ca2+ rise: reproducible and reversible increases
